Columns and labels:
Cannabinoid receptor 1 [1] = biological target: T1, Cannabinoid receptor 1 (Homo sapiens, UniProt P21554); assay: Displacement of human recombinant CB1 receptor expressed in HEK293 cell membranes incubated for 90 mins by radioligand binding assay; assay type: cell-based
Cannabinoid receptor 1 [2] = biological target: T1, Cannabinoid receptor 1; assay: Displacement of human recombinant CB1 receptor expressed in HEK293 cell membranes incubated for 90 mins by Cheng-Prusoff equation based analysis
Cannabinoid receptor 2 [3] = biological target: T2, Cannabinoid receptor 2 (Homo sapiens, UniProt P34972); assay: Displacement of human recombinant CB2 receptor expressed in HEK293 cell membranes incubated for 90 mins by radioligand binding assay; assay type: cell-based
T2 sequence (P34972 whole entry): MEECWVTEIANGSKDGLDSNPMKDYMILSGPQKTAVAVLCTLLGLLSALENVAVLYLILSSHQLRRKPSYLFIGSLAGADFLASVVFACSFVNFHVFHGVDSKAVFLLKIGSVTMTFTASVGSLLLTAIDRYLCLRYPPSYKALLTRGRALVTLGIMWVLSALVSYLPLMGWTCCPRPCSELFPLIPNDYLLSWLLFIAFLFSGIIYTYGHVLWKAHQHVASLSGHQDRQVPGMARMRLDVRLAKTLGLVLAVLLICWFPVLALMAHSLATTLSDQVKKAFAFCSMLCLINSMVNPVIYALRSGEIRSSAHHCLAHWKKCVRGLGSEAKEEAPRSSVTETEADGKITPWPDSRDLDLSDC

Cannabinoid receptor 2 [4] = biological target: T2, Cannabinoid receptor 2; assay: Displacement of human recombinant CB2 receptor expressed in HEK293 cell membranes incubated for 90 mins by Cheng-Prusoff equation based analysis
HEK293 = assay: Selectivity index, ratio of Ki for human recombinant CB1 receptor expressed in HEK293 cell membranes to Ki for human recombinant CB2 receptor expressed in HEK293 cell membranes; assay type: cell-based
Cannabinoid receptor 1 [5] = biological target: T1, Cannabinoid receptor 1; conditions: HEK293, at 10 µM
Description: Maximum displacement of human recombinant CB1 receptor expressed in HEK293 cell membranes at 10 uM incubated for 90 mins by radioligand binding assay

Cannabinoid receptor 2 [6] = biological target: T2, Cannabinoid receptor 2; conditions: HEK293, at 10 µM
Description: Maximum displacement of human recombinant CB2 receptor expressed in HEK293 cell membranes at 10 uM incubated for 90 mins by radioligand binding assay

T1 sequence (P21554 whole entry): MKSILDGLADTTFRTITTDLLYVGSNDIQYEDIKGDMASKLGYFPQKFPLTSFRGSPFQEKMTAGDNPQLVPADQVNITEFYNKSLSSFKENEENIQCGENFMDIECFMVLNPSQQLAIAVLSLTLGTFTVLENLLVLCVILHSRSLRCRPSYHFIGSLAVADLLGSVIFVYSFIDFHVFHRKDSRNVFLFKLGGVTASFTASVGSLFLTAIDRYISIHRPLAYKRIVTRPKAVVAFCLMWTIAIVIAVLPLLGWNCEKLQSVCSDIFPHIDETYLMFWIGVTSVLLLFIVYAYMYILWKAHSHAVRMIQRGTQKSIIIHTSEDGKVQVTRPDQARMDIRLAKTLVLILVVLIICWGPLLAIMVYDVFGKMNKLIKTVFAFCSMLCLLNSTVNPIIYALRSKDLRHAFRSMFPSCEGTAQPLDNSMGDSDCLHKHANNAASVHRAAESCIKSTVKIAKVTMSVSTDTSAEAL

| SMILES | IC50 (Cannabinoid receptor 1 [1]) [µM] | Ki (Cannabinoid receptor 1 [2]) [µM] | IC50 (Cannabinoid receptor 2 [3]) [µM] | Ki (Cannabinoid receptor 2 [4]) [µM] | Ratio Ki (HEK293) | Imax (Cannabinoid receptor 1 [5]) [%] | Imax (Cannabinoid receptor 2 [6]) [%] | log(ratioKi) (HEK293) |
| --- | --- | --- | --- | --- | --- | --- | --- | --- |
| O=C(/C=C/C=C/c1ccc2ccccc2c1)NC1CC1 | > 10 | > 10 | 3.02 | 0.81 | > 12.2 | 18.5 | 58.5 |  |
| CCOC(=O)CNC(=O)/C=C/C=C/c1ccc2ccccc2c1 | > 10 | > 10 | > 10 | > 10 |  | 2.24 | 48.5 |  |
| O=C(/C=C/C=C/c1ccc2c(c1)-c1ccccc1C2)NC1CC1 | > 10 | > 10 | > 10 | > 10 |  | 13.6 | 36.1 |  |
| O=C(/C=C/C=C/c1ccc2c(c1)OCCO2)NC1CC1 | > 10 | > 10 | > 10 | > 10 |  | 6.18 | 26.5 |  |
| CCOC(=O)CNC(=O)CCCCCOc1cccc2ccccc12 | > 10 | > 10 | > 10 | > 10 |  | 27.7 | 0 |  |
| CCOC(=O)CNC(=O)/C=C/C=C/c1ccc2c(c1)-c1ccccc1C2 | > 10 | > 10 | > 10 | > 10 |  | 5.47 | 39.1 |  |
| O=C(CCCCCOc1cccc2ccccc12)NCCO | > 10 | > 10 | > 10 | > 10 |  | 27 | 14.8 |  |
| NC(=O)NCCCCCOc1ccc2c(c1)OCO2 | > 10 | > 10 | > 10 | > 10 |  | 2.39 | 22.1 |  |
| CCS(=O)(=O)NCCCCCOc1cccc2ccccc12 | > 10 | > 10 | > 10 | > 10 |  | 7.86 | 30.9 |  |
| CCOC(=O)CNC(=O)/C=C/C=C/c1ccc2c(c1)OCCO2 | > 10 | > 10 | 9.69 | 2.56 | > 3.9 | 4.77 | 55.1 |  |
| CCNC(=O)NCCCCCOc1ccc2c(c1)OCO2 | > 10 | > 10 | > 10 | > 10 |  | 3.38 | 22.6 |  |
| O=C(CCCCCOc1ccc2ccccc2c1)NC1CC1 | > 10 | > 10 | > 10 | > 10 |  | 44.8 | 31.4 |  |
| NC(=O)NCCCCCOc1cccc2ccccc12 | > 10 | > 10 | > 10 | > 10 |  | 6.88 | 4.6 |  |
| CCS(=O)(=O)NCCCCCSc1ccc2ccccc2c1 | > 10 | > 10 | 5.02 | 1.32 | > 7.58 | 23.6 | 63.3 |  |
| CCCC(C)(C)c1ccc2c(c1)OC(C)(C)[C@@H]1CC=C(C)C[C@@H]21 | > 10 | > 10 | 0.55 | 0.14 | > 71.4 | < 50 | 50 |  |
| O=C(/C=C/C=C/c1ccc2ccccc2c1)NCCO | > 10 | > 10 | 4.81 | 1.27 | > 7.87 | 4.91 | 54.6 |  |
| O=C(/C=C/C=C/c1ccc2c(c1)-c1ccccc1C2)NCCO | > 10 | > 10 | > 10 | > 10 |  | 0 | 24.2 |  |
| CCS(=O)(=O)NCCCCCOc1ccc2ccccc2c1 | > 10 | > 10 | > 10 | > 10 |  | 11.9 | 23.7 |  |
| CCS(=O)(=O)NCCCCCOc1ccc2c(c1)OCO2 | > 10 | > 10 | > 10 | > 10 |  | 3.37 | 29.5 |  |
| O=C(CCCCCOc1cccc2ccccc12)NC1CC1 | > 10 | > 10 | > 10 | > 10 |  | 24.7 | 27.8 |  |
| CCNC(=O)NCCCCCSc1ccc2ccccc2c1 | > 10 | > 10 | 2.11 | 0.56 | > 17.9 | 16.9 | 68.2 | 1.3 |
| CCOC(=O)CNC(=O)CCCCCOc1ccc2ccccc2c1 | > 10 | > 10 | > 10 | > 10 |  | 6.46 | 25.5 |  |
| CCNC(=O)NCCCCCOc1ccc2ccccc2c1 | > 10 | > 10 | > 10 | > 10 |  | 9.27 | 27.1 |  |
| CC1(Cc2ccccc2)COc2cc(C(=O)N3CCCCC3)ccc21 (centres undefined) |  | > 10 |  |  |  |  |  | 1.37 |
| O=C(CCCCCOc1ccc2ccccc2c1)NCCO | > 10 | > 10 | > 10 | > 10 |  | 3.65 | 3.6 |  |
| CCNC(=O)NCCCCCOc1cccc2ccccc12 | > 10 | > 10 | > 10 | > 10 |  | 18.5 | 23.8 |  |

Reference: ChEMBL document CHEMBL3596121, “Naphthalene and 2,3-dihydrobenzo[b][1,4]dioxine derivatives with extended side chains as new scaffolds of CB2-selective ligands” (Medchemcomm, 2014)
